According to patent US9006209B2, “Uracyl spirooxetane nucleoside phosphoramidates” (Janssen Products, LP, priority 2010, dated 2015):

How the values were obtained:
HIV = settings: described in Org. Biomol. Chem., 2003, 3514-3526; cited from earlier work
[1] = Cytotoxicity in Huh-7 cells; assay type: cell-based; settings: human
Method: (§1) The in vitro antiviral activity against HCV of the compound of formula I was tested in a cellular HCV replicon system based on Lohmann et al. (1999) Science 285:110-113, with the further modifications described by Krieger et al. (2001) Journal of Virology 75: 4614-4624 (incorporated herein by reference), which is further exemplified in the examples section. This model, while not a complete infection model for HCV, is widely accepted as the most robust and efficient model of autonomous HCV RNA replication currently available. It will be appreciated that it is important to distinguish between compounds that specifically interfere with HCV functions from those that exert cytotoxic or cytostatic effects in the HCV replicon model, and as a consequence cause a decrease in HCV RNA or linked reporter enzyme concentration. Assays are known in the field for the evaluation of cellular cytotoxicity based for example on the activity of mitochondrial enzymes using fluorogenic redox dyes such as resazurin. Furthermore, cellular counter screens exist for the evaluation of non-selective inhibition of linked reporter gene activity, such as firefly luciferase. […]

[2] = test system: HCV replicon (HCV type 1b NS3-NS5B) in Huh-7 luc/neo cells; assay: HCV replicon assay (Huh-Luc, luciferase readout); assay type: cell-based, HCV genotype 1b; settings: Hepatitis C virus, Huh-7, 72 h, three days incubation, luciferase activity
Method: as §1, with “concentration.” for “concentration. Assays are known in the field for the evaluation of cellular cytotoxicity based for example on the activity of mitochondrial enzymes using fluorogenic redox dyes such as resazurin. Furthermore, cellular counter screens exist for the evaluation of non-selective inhibition of linked reporter gene activity, such as firefly luciferase.”
The replicon cells were plated in 384-well plates in the presence of the test and control compounds which were added in various concentrations. Following an incubation of three days, HCV replication was measured by assaying luciferase activity (using standard luciferase assay substrates and reagents and a Perkin Elmer ViewLux™ ultraHTS microplate imager). […] The inhibitory activity of the compound on luciferase activity was monitored on the Huh-Luc cells, enabling a dose-response curve for the test compound. […]

Structure (SMILES): Cc1cn([C@@H]2O[C@H](CO)[C@@H](O)[C@]23CCO3)c(=O)[nH]c1=O [1-(2-O,2-C-ethano-β-D-ribofuranosyl)thymine]
- activity against HIV (HIV): no activity was found

Structure (SMILES): CCCCOC(=O)[C@H](C)N[P@@](=O)(OC[C@H]1O[C@@H](n2ccc(=O)[nH]c2=O)[C@@]2(CCO2)[C@@H]1O)Oc1ccccc1 [P1, butyl N-[(R)-{[(4R,5R,7R,8R)-5-(2,4-dioxo-3,4-dihydro-pyrimidin-1(2H)-yl)-8-hydroxy-1,6-dioxaspiro[3.4]oct-7-yl]methoxy}(phenoxy)-phosphoryl]-L-alaninate]
- CC50 [1]: > 98 µM
- EC50 [2]: 4.47 µM

Structure (SMILES): O=c1ccn([C@@H]2O[C@H](CO)[C@@H](O)[C@]23CCO3)c(=O)[nH]1 [1-(2-O,2-C-ethano-β-D-ribofuranosyl)uracil]
- activity against HIV (HIV): no activity was found
